Measured values from ChEMBL document CHEMBL1926560, “Synthesis, biological evaluation and molecular docking studies of resveratrol derivatives possessing curcumin moiety as potent antitubulin agents” (Bioorg Med Chem, 2012).
Values after ≈ are worked out from the molar mass of the structure shown.

What was measured:
[1] = system: B16-F10; test: Antiproliferative activity against mouse B16F10 cells after 48 hrs by MTT assay; type: functional, cell-based; conditions: B16-F10, 48 h
[2] = system: HepG2; test: Antiproliferative activity against human HepG2 cells after 48 hrs by MTT assay; type: functional, cell-based; conditions: HepG2, 48 h
[3] = system: A549; test: Antiproliferative activity against human A549 cells after 48 hrs by MTT assay; type: functional, cell-based; conditions: A549, 48 h
[4] = Inhibition of bovine brain tubulin polymerization after 20 mins by turbidimetry; parameters: species or system Bos taurus
[5] = system: B16-F10; test: Cell cycle arrest in mouse B16F10 cells assessed as accumulation at Go/G1 phase at 1 ug/ml after 24 hrs using propidium iodide staining by flow cytometry (reference value: 68 %); type: functional
[6] = system: B16-F10; test: Cell cycle arrest in mouse B16F10 cells assessed as accumulation at S phase at 1 ug/ml after 24 hrs using propidium iodide staining by flow cytometry (reference value: 12 %); type: functional
[7] = system: B16-F10; test: Cell cycle arrest in mouse B16F10 cells assessed as accumulation at G2/M phase at 1 ug/ml after 24 hrs using propidium iodide staining by flow cytometry (reference value: 18 %); type: functional
[8] = system: B16-F10; test: Ratio of resveratrol IC50 to compound IC50 for mouse B16F10 cells; type: functional

Compound | IC50 [1] [µg/mL] | IC50 [2] [µg/mL] | IC50 [3] [µg/mL] | IC50 [4] [µg/mL] | Activity [5] [%] | Activity [6] [%] | Activity [7] [%] | Ratio IC50 [8]
COc1ccc(/C=C/c2cc(OC)cc(OC)c2/C=C/C(=O)/C=C/c2cc(Cl)cc(Cl)c2)cc1 | 2.08 (≈ 4.2 µM) | 3.28 (≈ 6.62 µM) | 6.18 (≈ 12.5 µM) | – | – | – | – | –
COc1ccc(/C=C/c2cc(OC)cc(OC)c2/C=C/C(=O)/C=C/c2ccc(C)c(C)c2)cc1 | 1.57 (≈ 3.45 µM) | 4.12 (≈ 9.06 µM) | 5.33 (≈ 11.7 µM) | 3.57 (≈ 7.85 µM) | – | – | – | –
COc1ccc(/C=C/c2cc(OC)cc(OC)c2/C=C/C(=O)/C=C/c2ccccc2OC)cc1 | 2.13 (≈ 4.67 µM) | 5.82 (≈ 12.7 µM) | 6.49 (≈ 14.2 µM) | 5.99 (≈ 13.1 µM) | – | – | – | –
COc1ccc(/C=C/C(=O)/C=C/c2c(/C=C/c3ccc(OC)cc3)cc(OC)cc2OC)cc1 | 2.4 (≈ 5.26 µM) | 6.99 (≈ 15.3 µM) | 7.65 (≈ 16.8 µM) | 2.89 (≈ 6.33 µM) | – | – | – | –
COc1ccc(/C=C/c2cc(OC)cc(OC)c2/C=C/C(=O)/C=C/c2ccccc2F)cc1 | 2.51 (≈ 5.65 µM) | 4.85 (≈ 10.9 µM) | 8.01 (≈ 18 µM) | – | – | – | – | –
COc1ccc(/C=C/c2cc(OC)cc(OC)c2/C=C/C(=O)/C=C/c2cccc([N+](=O)[O-])c2)cc1 | 1.47 (≈ 3.12 µM) | 2.44 (≈ 5.17 µM) | 3.09 (≈ 6.55 µM) | – | – | – | – | –
COc1ccc(/C=C/c2cc(OC)cc(OC)c2/C=C/C(=O)/C=C/c2cccc(F)c2C)cc1 | 1.8 (≈ 3.93 µM) | 2.74 (≈ 5.98 µM) | 3.98 (≈ 8.68 µM) | – | – | – | – | –
COc1ccc(/C=C/c2cc(OC)cc(OC)c2/C=C/C(=O)/C=C/c2ccc(F)c(Cl)c2)cc1 | 1.79 (≈ 3.74 µM) | 9.07 (≈ 18.9 µM) | 4.65 (≈ 9.71 µM) | – | – | – | – | –
COc1ccc(/C=C/c2cc(OC)cc(OC)c2/C=C/C(=O)/C=C/c2ccc([N+](=O)[O-])cc2)cc1 | 2.35 (≈ 4.98 µM) | 6.95 (≈ 14.7 µM) | 6.69 (≈ 14.2 µM) | – | – | – | – | –
COc1ccc(/C=C/c2cc(OC)cc(OC)c2/C=C/C(=O)/C=C/c2ccc(Cl)cc2)cc1 | 3.17 (≈ 6.88 µM) | 8.29 (≈ 18 µM) | 11.2 (≈ 24.2 µM) | – | – | – | – | –
COc1ccc(/C=C/c2cc(OC)cc(OC)c2/C=C/C(=O)/C=C/c2cc(OC)cc(OC)c2)cc1 | 0.71 (≈ 1.46 µM) | 1.6 (≈ 3.29 µM) | 2.1 (≈ 4.32 µM) | 1.45 (≈ 2.98 µM) | 28 | 14 | 52 | 50
COc1cc2c(c(OC)c1OC)-c1ccc(OC)c(=O)cc1[C@@H](NC(C)=O)CC2 [COLCHICINE] | – | – | – | – | 2 | 3 | 85 | –
COc1ccc(/C=C/c2cc(OC)cc(OC)c2/C=C/C(=O)/C=C/c2ccc(C(C)C)cc2)cc1 | 2.24 (≈ 4.78 µM) | 4.43 (≈ 9.45 µM) | 6.06 (≈ 12.9 µM) | – | – | – | – | –
COc1ccc(/C=C/c2cc(OC)cc(OC)c2/C=C/C(=O)/C=C/c2cccnc2)cc1 | 1.48 (≈ 3.46 µM) | 3.5 (≈ 8.19 µM) | 3.48 (≈ 8.14 µM) | – | – | – | – | –
COc1ccc(/C=C/c2cc(OC)cc(OC)c2/C=C/C(=O)/C=C/c2ccc(F)c(F)c2)cc1 | 2.23 (≈ 4.82 µM) | 5.97 (≈ 12.9 µM) | 6.23 (≈ 13.5 µM) | – | – | – | – | –
COc1ccc(/C=C/c2cc(OC)cc(OC)c2/C=C/C(=O)/C=C/c2ccccc2)cc1 | 2.66 (≈ 6.24 µM) | 4.79 (≈ 11.2 µM) | 5.25 (≈ 12.3 µM) | 6.28 (≈ 14.7 µM) | – | – | – | –
COc1ccc(/C=C/c2cc(OC)cc(OC)c2/C=C/C(=O)/C=C/c2c(Cl)cccc2Cl)cc1 | 3.07 (≈ 6.2 µM) | 9.31 (≈ 18.8 µM) | 8.93 (≈ 18 µM) | – | – | – | – | –
COc1ccc(/C=C/c2cc(OC)cc(OC)c2/C=C/C(=O)/C=C/c2cccc(Br)c2)cc1 | 1.97 (≈ 3.9 µM) | 5.52 (≈ 10.9 µM) | 4.75 (≈ 9.4 µM) | – | – | – | – | –

Compound | IC50 [1] [µg/mL] | IC50 [2] [µg/mL] | IC50 [3] [µg/mL] | IC50 [4] [µg/mL] | Activity [5] [%] | Activity [6] [%] | Activity [7] [%] | Ratio IC50 [8]
COc1ccc(/C=C/c2cc(OC)cc(OC)c2/C=C/C(=O)/C=C/c2cc(C(F)(F)F)ccc2Cl)cc1 | 1.85 (≈ 3.5 µM) | 6.79 (≈ 12.8 µM) | 5.96 (≈ 11.3 µM) | – | – | – | – | –
COc1ccc(/C=C/c2cc(OC)cc(OC)c2/C=C/C(=O)/C=C/c2cc(F)ccc2C)cc1 | 0.75 (≈ 1.64 µM) | 1.96 (≈ 4.27 µM) | 2.32 (≈ 5.06 µM) | 1.81 (≈ 3.95 µM) | – | – | – | –
COc1ccc(/C=C/c2cc(OC)cc(OC)c2/C=C/C(=O)/C=C/c2cccc(F)c2)cc1 | 1.67 (≈ 3.76 µM) | 2.65 (≈ 5.96 µM) | 4.47 (≈ 10.1 µM) | – | – | – | – | –
COc1ccc(/C=C/c2cc(OC)cc(OC)c2/C=C/C(=O)/C=C/c2ccc(F)cc2)cc1 | 1.81 (≈ 4.07 µM) | 4.35 (≈ 9.79 µM) | 5.83 (≈ 13.1 µM) | – | – | – | – | –
COc1ccc(/C=C/c2cc(OC)cc(OC)c2/C=C/C(=O)/C=C/c2ccc(Cl)cc2Cl)cc1 | 2.11 (≈ 4.26 µM) | 4.67 (≈ 9.43 µM) | 5.05 (≈ 10.2 µM) | – | – | – | – | –
COc1ccc(/C=C/c2cc(OC)cc(OC)c2/C=C/C(=O)/C=C/c2ccccn2)cc1 | 3.12 (≈ 7.3 µM) | 9.17 (≈ 21.5 µM) | 9.16 (≈ 21.4 µM) | – | – | – | – | –
COc1ccc(/C=C/c2cc(OC)cc(OC)c2/C=C/C(=O)/C=C/c2cc(OC)ccc2OC)cc1 | 1.3 (≈ 2.67 µM) | 2.78 (≈ 5.71 µM) | 4.09 (≈ 8.41 µM) | 2.11 (≈ 4.34 µM) | – | – | – | –
COc1ccc(/C=C/c2cc(OC)cc(OC)c2/C=C/C(=O)/C=C/c2ccccc2[N+](=O)[O-])cc1 | 3.43 (≈ 7.27 µM) | 6.75 (≈ 14.3 µM) | 11.7 (≈ 24.7 µM) | – | – | – | – | –
COc1ccc(/C=C/c2cc(OC)cc(OC)c2/C=C/C(=O)/C=C/c2cccc(OC)c2)cc1 | 2.72 (≈ 5.96 µM) | 8.52 (≈ 18.7 µM) | 7.66 (≈ 16.8 µM) | 8.05 (≈ 17.6 µM) | – | – | – | –
COc1ccc(/C=C/c2cc(OC)cc(OC)c2/C=C/C(=O)/C=C/c2cccc(C)c2)cc1 | 1.67 (≈ 3.79 µM) | 4.58 (≈ 10.4 µM) | 4.08 (≈ 9.26 µM) | 3.08 (≈ 6.99 µM) | – | – | – | –
COc1ccc(/C=C/c2cc(OC)cc(OC)c2/C=C/C(=O)/C=C/c2cccc(Cl)c2)cc1 | 2.99 (≈ 6.49 µM) | 6.94 (≈ 15.1 µM) | 8.23 (≈ 17.9 µM) | – | – | – | – | –
COc1ccc(/C=C/c2cc(OC)cc(OC)c2/C=C/C(=O)/C=C/c2ccc(C)cc2)cc1 | 1.08 (≈ 2.45 µM) | 2.37 (≈ 5.38 µM) | 2.69 (≈ 6.11 µM) | 2.68 (≈ 6.08 µM) | – | – | – | –
COc1ccc(/C=C/c2cc(OC)cc(OC)c2/C=C/C(=O)/C=C/c2cccc(C(F)(F)F)c2)cc1 | 3.1 (≈ 6.27 µM) | 5.38 (≈ 10.9 µM) | 4.97 (≈ 10.1 µM) | – | – | – | – | –
COc1ccc(/C=C/c2cc(OC)cc(OC)c2/C=C/C(=O)/C=C/c2ccccc2Br)cc1 | 3.09 (≈ 6.11 µM) | 10.2 (≈ 20.3 µM) | 9.37 (≈ 18.5 µM) | – | – | – | – | –
COc1ccc(/C=C/c2cc(OC)cc(OC)c2/C=C/C(=O)/C=C/c2ccccc2Cl)cc1 | 5.94 (≈ 12.9 µM) | 12.4 (≈ 27 µM) | 15.2 (≈ 33 µM) | – | – | – | – | –
COc1ccc(/C=C/c2cc(OC)cc(OC)c2/C=C/C(=O)/C=C/c2ccc(Cl)c(Cl)c2)cc1 | 2.73 (≈ 5.51 µM) | 9.49 (≈ 19.2 µM) | 6.99 (≈ 14.1 µM) | – | – | – | – | –
COc1ccc(/C=C/c2cc(OC)cc(OC)c2/C=C/C(C)=O)cc1 | 2.88 (≈ 8.51 µM) | 8.41 (≈ 24.9 µM) | 6.97 (≈ 20.6 µM) | – | – | – | – | –
COc1ccc(/C=C/c2cc(OC)cc(OC)c2/C=C/C(=O)/C=C/c2ccc(Br)cc2)cc1 | 2.44 (≈ 4.83 µM) | 7.75 (≈ 15.3 µM) | 7.89 (≈ 15.6 µM) | – | – | – | – | –
